Source: article PMC11941926, “Identification of Antimicrobial Peptides from Nibribacter radioresistens, a UV and Gamma Radiation Tolerant Bacterium” (Genes, 2025)
No end group written: not given here.

Legend:
[1] = test system: Staphylococcus aureus (SA, ATCC 6538); test: Antibacterial activity of synthetic NB_AMPs, microtiter plate method (MIC); format: cell-based
Description: (§1) The cell-free supernatant of all E. coli DH5α strains containing cloned AMPs was collected after 24 h of culture and filtered through a 0.2 μm syringe (mixed cellulose esters (MCE), Merck, Darmstadt, Germany), and finally the cell-free supernatant was used for the evaluation of antibacterial activity. The cell-free supernatant from the E. coli DH5α, harboring only the plasmid vector without the NB_AMP genes, was confirmed as a negative control to have very little effect on antibacterial activities. The synthesized AMPs were suspended at a concentration of 10 mg/mL in distilled water and then used for antibacterial activity. The antibacterial activity against the Gram-negative bacterium, E. coli (EC; ATCC 10536), and the Gram-positive bacterium, Staphylococcus aureus (SA, ATCC 6538), was analyzed using the microtiter plate method and expressed as minimal inhibition concentration (MIC); the bacteria pre-cultured overnight (O/N) were cultured at 10^6 CFU/mL with the cell-free supernatant or the synthetic peptides, the reaction mixtures were added to the microtiter plate, and finally the reactivity was observed by O/N culture at 37 °C.

E. coli (EC; ATCC 10536) = test: as above; format: cell-based, Escherichia coli
Description: as §1

[2] = synthetic peptides, microtiter plate, 10^6 CFU/mL, O/N culture at 37 °C, peptide stock 10 mg/mL in distilled water

| Sequence | MIC50 against S. aureus [1, 2] | MIC50 against E. coli (E. coli (EC; ATCC 10536); [2]) | MIC50 against S. aureus ([1]; ATCC 6538, 24 h) | MIC50 against E. coli (E. coli (EC; ATCC 10536); ATCC 10536, 24 h) |
| --- | --- | --- | --- | --- |
| KGAKKAGKAVKKTVKK [NB_AMP3] | 2880 µg/mL | 3430 µg/mL | – | – |
| GLQKYLSWVKNKRL [NB_AMP2] | 230 µg/mL | 170 µg/mL | – | – |
| FFGRFKKEK [NB_AMP10] | – | – | 2110 µg/mL | 2600 µg/mL |
| NTLSSIASLLKK [NB_AMP5] | – | – | 3240 µg/mL | 10210 µg/mL |
| NYKLLSNSLNILL [NB_AMP8] | 8360 µg/mL | – | – | – |
| KKLAAKEKAAAAKEKEAAKKAAAKEKK [NB_AMP9] | 5050 µg/mL | – | – | – |
| GQYNQGGYGSQGGDYGQGGYGQGSMGGGYG [NB_AMP6] | 5830 µg/mL | 9430 µg/mL | – | – |
| WQEIKNSLEDLSDSI [NB_AMP4] | 2950 µg/mL | 4960 µg/mL | – | – |
